Assay results published in patent publication US6737383B1, “Herbicidal oxadiazolidines” (priority 1999, dated 2004).

Assays:
soybean = assay: Test B pre/postemergence soybean; format: in vivo, Glycine max
In short: (§1)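 Response is a visual 0-to-10 score relative to untreated plants, where 0 means no effect and 10 means complete control, taken twelve to sixteen days after application. Treatments went onto soil at planting and onto foliage of 1- to 4-leaf plants, using a surfactant-containing non-phytotoxic solvent.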

sugar beet = assay: Test B pre/postemergence sugar beet; format: in vivo, Beta vulgaris
In short: as §1

wheat = assay: Test B pre/postemergence wheat; format: in vivo, Triticum aestivum
In short: as §1

rape = assay: Test B pre/postemergence rape; format: in vivo, Brassica napus
In short: as §1

duck salad = assay: Test B flood test duck salad; format: in vivo, Heteranthera limosa
In short: (§2)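 Plants were grown to the 2-leaf stage before treatment with test chemical, then held in a greenhouse for twelve to sixteen days. Injury was visually rated against untreated controls on a 0–10 scale, where 0 is no effect and 10 is complete control.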

blackgrass = assay: Test B pre/postemergence blackgrass; format: in vivo, Alopecurus myosuroides
In short: as §1

velvetleaf = assay: Test B pre/postemergence velvetleaf; format: in vivo, Abutilon theophrasti
In short: as §1

smallflower flatsedge = assay: Test B flood test smallflower flatsedge; format: in vivo, Cyperus difformis
In short: as §2

giant foxtail = assay: Test B pre/postemergence giant foxtail; format: in vivo, Setaria faberii
In short: as §1

crabgrass = assay: Test B pre/postemergence crabgrass; format: in vivo, Digitaria sanguinalis
In short: as §1

surinam grass = assay: Test B pre/postemergence surinam grass; format: in vivo, Brachiaria decumbens
In short: as §1

bamyardgrass = assay: Test B flood test barnyardgrass; format: in vivo, Echinochloa crus-galli
In short: as §2

bedstraw = assay: Test B pre/postemergence bedstraw; format: in vivo, Galium aparine
In short: as §1

purple nutsedge = assay: Test B pre/postemergence purple nutsedge; format: in vivo, Cyperus rotundus
In short: as §1

cocklebur = assay: Test B pre/postemergence cocklebur; format: in vivo, Xanthium strumarium
In short: as §1

rice = assay: Test B flood test rice; format: in vivo, Oryza sativa
In short: as §2

corn = assay: Test B pre/postemergence corn; format: in vivo, Zea mays
In short: as §1

[1] = Preemergence, Rate 62 g/ha, scale of 0 to 10 where 0 is no effect and 10 is complete control
[2] = Preemergence, Rate 125 g/ha, 0 is no effect, 10 is complete control
[3] = Preemergence, Rate 250 g/ha, scale 0 to 10, 0 is no effect, 10 is complete control
[4] = Preemergence, Rate 500 g/ha, scale of 0 to 10 where 0 is no effect and 10 is complete control
[5] = Rate 62 g/ha, Postemergence, scale of 0 to 10 where 0 is no effect and 10 is complete control
[6] = Rate 125 g/ha, Postemergence, scale 0 to 10
[7] = Rate 500 g/ha, Postemergence, scale 0 to 10
[8] = Rate 62 g/ha, headed Pre-emergence (flood test species), scale 0 to 10 (0 no effect, 10 complete control)
[9] = Rate 125 g/ha, Pre-emergence, flood test species, scale 0 to 10 where 0 is no effect and 10 is complete control
[10] = Rate 250 g/ha, Pre-emergence, flood-test species, scale 0 to 10, 0 is no effect, 10 is complete control
[11] = Rate 500 g/ha, Pre-emergence, flood test species, scale 0 to 10 (0 no effect, 10 complete control)

CC(C)N(C(=O)n1oc(=O)n(Cc2ccco2)c1=O)c1ccc(Cl)cc1 [Compound 206]
Soybean plant response rating (soybean; [1]): 0
Soybean plant response rating (0 to 10 scale) (soybean; [2]): 1
Soybean plant response rating (soybean; [3]): 0
Plant response rating, Soybean (soybean; [4]): 0
Soybean plant response rating (soybean; [5]): 0
Soybean plant response rating (soybean; [6]): 1
Plant response rating (0 to 10; 0 is no effect, 10 is complete control), Soybean (soybean; Rate 250 g/ha, Postemergence): 2
Soybean plant response rating (soybean; [7]): 2
Sugarbeets plant response rating (sugar beet; [1]): 0
Sugarbeets plant response rating (0 to 10 scale) (sugar beet; [2]): 0
Sugarbeets plant response rating (sugar beet; [3]): 0
Plant response rating, Sugarbeets (sugar beet; [4]): 0
Sugarbeets plant response rating (sugar beet; [5]): 0
Sugarbeets plant response rating (sugar beet; [6]): 0
Plant response rating (0 to 10; 0 is no effect, 10 is complete control), Sugarbeets (sugar beet; Rate 250 g/ha, Postemergence): 0
Sugarbeets plant response rating (sugar beet; [7]): 0
Wheat plant response rating (wheat; [1]): 0
Wheat plant response rating (wheat; [3]): 0
Plant response rating, Wheat (wheat; [4]): 0
Wheat plant response rating (wheat; [5]): 0
Wheat plant response rating (wheat; [6]): 0
Plant response rating (0 to 10; 0 is no effect, 10 is complete control), Wheat (wheat; Rate 250 g/ha, Postemergence): 0
Rape plant response rating (rape; [1]): 0
Rape plant response rating (0 to 10 scale) (rape; [2]): 0
Rape plant response rating (rape; [3]): 0
Plant response rating, Rape (rape; [4]): 0
Rape plant response rating (rape; [5]): 0
Rape plant response rating (rape; [6]): 0
Plant response rating (0 to 10; 0 is no effect, 10 is complete control), Rape (rape; Rate 250 g/ha, Postemergence): 0
Rape plant response rating (rape; [7]): 0
Ducksalad plant response rating (duck salad; [8]): 0
Ducksalad plant response rating (duck salad; [9]): 0
Ducksalad plant response rating (duck salad; [10]): 0
Ducksalad plant response rating (duck salad; [11]): 0
Blackgrass plant response rating (blackgrass; [1]): 0
Blackgrass plant response rating (0 to 10 scale) (blackgrass; [2]): 0
Blackgrass plant response rating (blackgrass; [3]): 0
Plant response rating, Blackgrass (blackgrass; [4]): 0
Blackgrass plant response rating (blackgrass; [5]): 0
Blackgrass plant response rating (blackgrass; [6]): 0
Plant response rating (0 to 10; 0 is no effect, 10 is complete control), Blackgrass (blackgrass; Rate 250 g/ha, Postemergence): 0
Blackgrass plant response rating (blackgrass; [7]): 0
Velvetleaf plant response rating (velvetleaf; [1]): 0
Velvetleaf plant response rating (velvetleaf; [3]): 0
Plant response rating, Velvetleaf (velvetleaf; [4]): 0
Velvetleaf plant response rating (velvetleaf; [5]): 0
Velvetleaf plant response rating (velvetleaf; [6]): 0
Plant response rating (0 to 10; 0 is no effect, 10 is complete control), Velvetleaf (velvetleaf; Rate 250 g/ha, Postemergence): 0
S. Flatsedge plant response rating (smallflower flatsedge; [8]): 0
S. Flatsedge plant response rating (smallflower flatsedge; [9]): 0
S. Flatsedge plant response rating (smallflower flatsedge; [10]): 0
S. Flatsedge plant response rating (smallflower flatsedge; [11]): 0
Giant foxtail plant response rating (giant foxtail; [1]): 0
Giant foxtail plant response rating (0 to 10 scale) (giant foxtail; [2]): 3
Giant foxtail plant response rating (giant foxtail; [3]): 8
Plant response rating, Giant foxtail (giant foxtail; [4]): 9
Giant foxtail plant response rating (giant foxtail; [5]): 0
Giant foxtail plant response rating (giant foxtail; [6]): 0
Plant response rating (0 to 10; 0 is no effect, 10 is complete control), Giant foxtail (giant foxtail; Rate 250 g/ha, Postemergence): 0
Giant foxtail plant response rating (giant foxtail; [7]): 0
Crabgrass plant response rating (crabgrass; [1]): 0
Crabgrass plant response rating (0 to 10 scale) (crabgrass; [2]): 0
Crabgrass plant response rating (crabgrass; [3]): 3
Plant response rating, Crabgrass (crabgrass; [4]): 8
Crabgrass plant response rating (crabgrass; [5]): 0
Crabgrass plant response rating (crabgrass; [6]): 0
Plant response rating (0 to 10; 0 is no effect, 10 is complete control), Crabgrass (crabgrass; Rate 250 g/ha, Postemergence): 0
Crabgrass plant response rating (crabgrass; [7]): 0
B. signalgrass plant response rating (surinam grass; [1]): 0
B. signalgrass plant response rating (0 to 10 scale) (surinam grass; [2]): 0
B. signalgrass plant response rating (surinam grass; [3]): 0
Plant response rating, B. signalgrass (surinam grass; [4]): 0
B. signalgrass plant response rating (surinam grass; [5]): 0
B. signalgrass plant response rating (surinam grass; Rate 125 g/ha, Postemergence, scale 0 (no effect) to 10 (complete control)): 0
Plant response rating, B. signalgrass (surinam grass; Rate 250 g/ha, Postemergence, scale 0 to 10, 0 is no effect, 10 is complete control): 0
B. signalgrass plant response rating (surinam grass; Rate 500 g/ha, Postemergence, scale 0 to 10, 0 no effect, 10 complete control): 0
Barnyardgrass plant response rating (bamyardgrass; [8]): 0
Barnyardgrass plant response rating (bamyardgrass; [9]): 0
Barnyardgrass plant response rating (bamyardgrass; [10]): 0
Barnyardgrass plant response rating (bamyardgrass; [11]): 0
Bedstraw plant response rating (bedstraw; [1]): 0
Bedstraw plant response rating (0 to 10 scale) (bedstraw; [2]): 0
Bedstraw plant response rating (bedstraw; [3]): 0
Plant response rating, Bedstraw (bedstraw; [4]): 0
Bedstraw plant response rating (bedstraw; [5]): 0
Bedstraw plant response rating (bedstraw; [6]): 0
Plant response rating (0 to 10; 0 is no effect, 10 is complete control), Bedstraw (bedstraw; Rate 250 g/ha, Postemergence): 0
Bedstraw plant response rating (bedstraw; [7]): 0
Nutsedge plant response rating (purple nutsedge; [1]): 0
Nutsedge plant response rating (0 to 10 scale) (purple nutsedge; [2]): 0
Nutsedge plant response rating (purple nutsedge; [3]): 0
Plant response rating, Nutsedge (purple nutsedge; [4]): 0
Nutsedge plant response rating (purple nutsedge; [5]): 0
Nutsedge plant response rating (purple nutsedge; [6]): 0
Plant response rating (0 to 10; 0 is no effect, 10 is complete control), Nutsedge (purple nutsedge; Rate 250 g/ha, Postemergence): 0
Nutsedge plant response rating (purple nutsedge; [7]): 0
Cocklebur plant response rating (cocklebur; [1]): 0
Cocklebur plant response rating (0 to 10 scale) (cocklebur; [2]): 0
Cocklebur plant response rating (cocklebur; [3]): 0
Plant response rating, Cocklebur (cocklebur; [4]): 0
Cocklebur plant response rating (cocklebur; [5]): 0
Cocklebur plant response rating (cocklebur; [6]): 0
Plant response rating (0 to 10; 0 is no effect, 10 is complete control), Cocklebur (cocklebur; Rate 250 g/ha, Postemergence): 0
Cocklebur plant response rating (cocklebur; [7]): 0
Rice plant response rating (rice; [8]): 0
Rice plant response rating (rice; [9]): 0
Rice plant response rating (rice; [10]): 0
Rice plant response rating (rice; [11]): 0
Corn plant response rating (corn; [1]): 0
Corn plant response rating (0 to 10 scale) (corn; [2]): 0
Corn plant response rating (corn; [3]): 0
Plant response rating, Corn (corn; [4]): 0
Corn plant response rating (corn; [5]): 0
Corn plant response rating (corn; [6]): 0
Plant response rating (0 to 10; 0 is no effect, 10 is complete control), Corn (corn; Rate 250 g/ha, Postemergence): 0
Corn plant response rating (corn; [7]): 0
